# Legend:
# [1] = RU-486 and emetine composition pharmacokinetics study (RU-486 blood concentrations by HPLC); assay type: in vivo; conditions: human, plasma, po, one tablet (10 mg RU-486) orally, eight subjects per group
# Procedure: Experiment 4: RU-486 and Emetine Composition Pharmacokinetics Studies
# The studies were carried out with two test groups in parallel. The first group used the composite tablets according to preparation I described below (10 mg RU-486 and 8.4 mg emetine). The control group used tablets containing only 10 mg RU-486. The two types of tablets were similarly prepared, and they had the same appearance. A total of sixteen test subjects were involved, eight in each group. Each test subject was given one pill and blood samples were collected at 0, 0.33, 0.5, 0.75, 1, 1.5, 2, 3, 4, 6, 8, 12, 24, 48, 72, 96, and 120 hours for the determination of RU-486 concentrations in order to calculate Cmax, Tmax, AUC0-120, AUC0-∞, and T1/2 pharmacokinetics parameters.
# Experiment 5: Analysis of Pharmacokinetics Samples
# RU-486 blood concentration determinations: The analysis used calibrated HPLC. Calibration was performed for a concentration range from 5 to 5000 ng/ml. The internal standard for the analysis was metoclopramide, at 20 ng/ml, 400 ng/ml, and 4000 ng/ml as quality control. The lowest detectable concentration (LOQ) is 5 ng/ml.
# Plasma sample preparation: Plasma (0.2 ml) was placed in a test tube, to which metoclopramide (25 μL; 7.5 ng/μL) was added as internal standard, followed by 50 μL of 0.2 M K2HPO4. The mixture was mixed by shaking for 30 seconds. Then, 3 ml of tert-butyl methyl ether was added as the extraction reagent. The mixture was mixed by shaking for 60 seconds before centrifuged at 3,000 rpm for 5 minutes. The upper clear solution was removed and placed into another test tube. This clear solution was dry with a stream of N2. To the dried residue, 200 μL of mobile phase was added. The tube was shaken for 60 seconds. Each injection used 30 μL of sample.
# pregnancy [2] = conditions: cited from earlier work
# menstrual cycle = conditions: RU-486 given late in the follicular phase; cited from earlier work
# pregnancy [3] = conditions: RU-486 at 50 mg or 10 mg; cited from earlier work
smiles,measurement,setting,value
"CC#C[C@]1(O)CC[C@H]2[C@@H]3CCC4=CC(=O)CCC4=C3[C@@H](c3ccc(N(C)C)cc3)C[C@@]21C [Mifepristone, 17β-hydroxy-11β-(4-dimethylaminophenyl)-17α-(1-propynyl)-estra-4,9-dien-3-one]",Tmax,[1],0.91 ± 0.19 h
same,AUC(0-t),[1]; read-out: AUC0-120 of RU-486,8720 ± 1470 ng·h/mL
same,AUC(0-inf),[1]; read-out: AUC0-∞ of RU-486,9420 ± 1550 ng·h/mL
same,half-life,[1]; read-out: T1/2 of RU-486 (converted),35.2 ± 2.86 h
same,result with abortion,pregnancy [2]; 200 mg or 150 mg of RU-486,good results with abortion
same,success rate of early termination of pregnancy,"pregnancy [2]; 600 mg RU-486 and 400 mg misprostol, within the first 49 days of pregnancy",97%
same,prolongation of the follicular phase,menstrual cycle,10 to 15 days
same,morning after pregnancy prevention effect,pregnancy [3],same effect as 500 mg
